Data from patent US20250179024A1, “AMYLOID AND ASSOCIATED PATHOLOGY MODULATORS AND METHODS THEREOF” (Jawaharlal Nehru Centre for Advanced Scientific Research, priority 2022, published 2025).

Legend:
[1] = target: T1, Aβ in the presence of Cu (II) (Homo sapiens, UniProt P05067); assay: Cu-dependent Aβ aggregation, native PAGE and western blot; type: biochemical; conditions: Aβ 10 μM, Cu (II) 20 μM, NMIs 20 μM, 37° C., 48 h
T1 construct: is a 42 amino acid proteolytic product from the amyloid precursor protein; purchased Invitrogen
T1 sequence (P05067 672-713 limits assumed): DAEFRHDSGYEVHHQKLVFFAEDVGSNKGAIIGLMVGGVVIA
Procedure: The samples were prepared by incubating Aβ42 with specific concentration of NMI compounds of present disclosure and metal ions for 48 h and then subjected to 6% native polyacrylamide gel electrophoresis (Native-PAGE) in tris-glycine buffer. The lower molecular weight aggregates permeabilized through the gel and resolved in the gel. Higher molecular aggregates stuck in the upper part of wells and potentially carried in gel. Then the protein was transferred to PVDF membrane for 4 h at cold condition maintained using ice cold transfer buffer and immersing the transfer apparatus in ice. Then the blots were continued similar to dot blots.
The absorbance and fluorescence spectroscopy studies together with mass spectrometry data confirmed the selective Cu (II) or Zn (II) chelation property of M1 and M3. […] Aβ (10 μM) was incubated in the presence of Cu (II) or Zn (II) (20 μM) with NMIs at 37° C. for 48 h and the samples were subjected to native PAGE and western blot analysis. […] Modulation of Zn-dependent Aβ aggregation by M4 was attributed to its two Zn (II) chelation centres. M3 with dopamine and DPA moieties effectively modulated both Cu (II) and Zn (II)-dependent Aβ aggregation. The effect of NMIs on the morphological outcome of metal-dependent Aβ aggregation was visualized by AFM imaging (FIGS. 1E and 1F). Aβ in the presence of Cu (II) and Zn (II) formed dense and thick fibrils.

[2] = Metal chelation by UV-visible absorbance and fluorescence spectra; type: physicochemical; conditions: for interaction with Cu (II) and Zn (II), change in absorbance spectra / chelation among different physiologically relevant metals, absorbance: NMIs 20 μM; for chelation among different physiologically relevant metals, absorbance: metals 40 μM
Excerpt: The compounds of the present disclosure (NMIs) were designed to chelate with metals (Cu and Zn) and alleviate the metal-dependent Aβ toxicity. […] The change in absorbance and fluorescence spectra of NMIs were monitored to understand the interaction with Cu(II) and Zn(II). […] The fluorescence intensity of M3 at 525 nm decreased with the increasing concentration of Cu(II) or Zn(II) (FIGS. 6(A & B)).

Aβ42 = target: T2, Aβ42 (Homo sapiens, UniProt P05067); assay: Native PAGE and western blot of Aβ aggregated species; type: biochemical; conditions: NMIs 20 μM; for size distribution of Aβ aggregated species, aggregation inhibition: Aβ 10 μM, FIGS. 1B and 2B; for LMW and HMW Aβ aggregates, dissolution samples: Aβ aggregates 10 μM, FIG. 4B
T2 construct: is a 42 amino acid proteolytic product from the amyloid precursor protein; purchased Invitrogen
T2 sequence (P05067 672-713 limits assumed): as above
Procedure: The samples were prepared by incubating Aβ42 with specific concentration of NMI compounds of present disclosure and metal ions for 48 h and then subjected to 6% native polyacrylamide gel electrophoresis (Native-PAGE) in tris-glycine buffer. The lower molecular weight aggregates permeabilized through the gel and resolved in the gel. Higher molecular aggregates stuck in the upper part of wells and potentially carried in gel. Then the protein was transferred to PVDF membrane for 4 h at cold condition maintained using ice cold transfer buffer and immersing the transfer apparatus in ice. Then the blots were continued similar to dot blots. […] It has been observed that the oligomers are a highly toxic species compared to Aβ fibrillar aggregates. The ability of NMIs (M3) to inhibit the formation of Aβ oligomers was assessed by dot blot assay. Aβ peptide (10 μM) was incubated with NMIs at 4° C. for 24 h followed by probing with A11 oligomer-specific antibody. […] Native PAGE and western blot analysis was carried out to understand the size distribution of Aβ aggregated species. […] In order to analyse the higher order aggregates not permeable in the gel matrix and the morphological characteristics, Aβ samples were subjected to atomic force microscopy (AFM) imaging.

SH-SY5Y cells = assay: In cellulo antioxidant assay, rescue from H2O2 induced cell death (MTT); type: cell-based; conditions: H2O2 200 μM, NMIs 20 μM, 18 h; H2O2 treated cells ~72%
Procedure: To assess in cellulo antioxidant activity of NMIs, rescue of neuronal cells from H2O2 induced cell death was assessed by MTT assay. The cells were seeded onto 96 well plate at seeding density of 25,000 cells per well. After 24 h cells were treated with H2O2 (200 μM) alone and with NMIs (20 μM) for 18 h. H2O2 treatment result in neuronal cell death and potent antioxidant molecule rescue cells. The cell viability was assessed by MTT assay and percentage cell viability was calculated. ABTS (λmax at 734 nm) radical scavenging assay assessed the ability of NMIs to quench nitrogen radicals (RNS). […] These in vitro experiments have established M1 and M3 as effective antioxidants and further their ability to scavenge ROS in cellulo was assessed. Treatment of cells with H2O2 was known to generate ROS and cause DNA damage, protein oxidation, lipid peroxidation and mitochondrial dysfunction, which led to cell death. The neuronal cells were treated with H2O2 (200 μM) alone and with NMIs (20 μM) for 18 h and cell viability by MTT assay. […] The production of excess ROS by Aβ results in oxidative stress and elicits stress response.

[3] = target: T3, preformed Aβ fibrillar aggregates (Homo sapiens, UniProt P05067); assay: Dot blot assay of dissolution of preformed Aβ fibrillar aggregates; type: biochemical; conditions: Aβ aggregates 10 μM; for dissolution efficiency: NMIs 20 μM, 48 h
T3 construct: is a 42 amino acid proteolytic product from the amyloid precursor protein; purchased Invitrogen
T3 sequence (P05067 672-713 limits assumed): as above
Procedure: Aggregation modulation by toxic Aβ aggregates were assessed and were quantified by dot blot assay. Aβ peptide (10 μM) was dissolved in phosphate buffered saline (PBS, 10 mM, pH 7.4), incubated alone and with NMIs (20 μM) at 37° C. for 48 h. For concentration dependent inhibition, 10 μM Aβ peptide was incubated with 1, 2, 5, 10 and 20 μM of NMIs and incubated. Samples for oligomer inhibition studies were prepared by incubating Aβ alone and with NMIs at 4° C. for 24 and subjected to dot blot analysis. For dissolution studies, Aβ peptide alone was incubated in PBS for 48 h to prepare fibrils and then incubated with NMIs further for 48 h. For dot blot experiment, 5 μL of sample was blotted on activated PVDF (polyvinylidene fluoride) membrane in triplicates and air dried. The membrane was blocked with skimmed milk powder for 1 h at room temperature. The blot paper was washed with tris-buffered saline with 0.01% Tween 20 (TBST) three times for 5 min. Blot paper was treated with fibril specific OC primary antibody (Rabbit, 1:1000 dilution) overnight at 4° C. For oligomers blot A11 anti-oligomer antibody (Rabbit 1:1000) was used. Blot was washed thrice with TBST and treated with HRP-conjugated antirabbit secondary antibody (1:5000 dilutions) for 1 h at room temperature. The bolt was washed thrice for 5 min with TBST and developed with ECL reagent (Biorad) and imaged with ChemiDoc BioRad gel documentation system in autoexposure mode. Blots were analyzed and quantified by ImageJ software. The fibrillar aggregates were formed by incubating Aβ peptide (10 μM) in PBS (pH 7.4) at 37° C. for 48 h. The aggregate samples were treated with NMIs (20 μM) for 48 h followed by dot blot analysis. […] These studies confirmed that M3 as the potential candidate to dissolve Aβ fibrillar aggregates to possibly nontoxic species.

Structure (SMILES) | formation of Aβ aggregates in the presence of Cu (II) [1] | fluorescence intensity at 525 nm with increasing concentration of Cu(II) or Zn(II) ([2]; 20 μM, Cu or Zn 2.5 to 40 μM) | interaction with Cu (II) and Zn (II), change in absorbance spectra ([2]; Cu or Zn 2.5 to 40 μM) | chelation among different physiologically relevant metals, absorbance [2] | size distribution of Aβ aggregated species, aggregation inhibition (Aβ42) | LMW and HMW Aβ aggregates, dissolution samples (Aβ42) | cell viability (SH-SY5Y cells) | EC50 [3] | dissolution ([3]; 0.1 molar ratio) | dissolution ([3]; 0.2 molar ratio) | dissolution ([3]; 0.5 molar ratio) | dissolution ([3]; 1 molar ratio) | dissolution ([3]; 2 molar ratio) | dissolution efficiency [3]
O=C1c2cccc3c(N(Cc4ccccn4)Cc4ccccn4)ccc(c23)C(=O)N1CCc1ccc(O)c(O)c1 [M3, 6-(bis(pyridin-2-ylmethyl)amino)-2-(3,4-dihydroxyphenethyl)-1H-benzo[de]isoquinoline-1,3(2H)-dione] | reduced the formation of aggregates | decreased | effectively interacted with Cu (II) and Zn (II) | selectively chelated with Cu(II) and Zn (II) | reduction of different Aβ species | effectively inhibited the formation of LMW and HMW Aβ aggregates | 91% | 7.87 µM | 25% | 46% | 48% | 50% | 59% | 52%
CN(C)c1ccc2c3c(cccc13)C(=O)N(CCc1ccc(O)c(O)c1)C2=O [M1, 2-(3,4-dihydroxyphenethyl)-6-(dimethylamino)-1H-benzo[de]isoquinoline-1,3(2H)-dione] | reduced the formation of aggregates |  | effectively interacted with Cu (II) and Zn (II) | selectively chelated with Cu(II) and Zn (II) | reduction of different Aβ species | effectively inhibited the formation of LMW and HMW Aβ aggregates | 89% |  |  |  |  |  |  | ~44%
